Measurements: article PMC6069857, “Effects of novel HDAC inhibitors on urothelial carcinoma cells” (Clinical Epigenetics, 2018)

Experiments:
HDAC5 = target: T1, HDAC5 (Homo sapiens, UniProt Q9UQL6); details: older assays, given for HDAC4/5 together; cited from earlier work
T1 construct: purchased Reaction Biology Corp. (Malvern, PA)

[1] = test system: VM-CUB1 and UM-UC-3 cells; experiment: Nuclear morphology analysis (DAPI, rhodamine phalloidin); type: cell-based, human; details: 19i 2 μM, 24 or 48 h
Description: As previously described, after fixation with 4% formaldehyde, cells were permeabilized (0.3% Triton X100 in PBS, 10 min, RT), blocked (1% BSA in PBS, 30 min, RT), and subsequently incubated for 1 h at RT with 14 nM Rhodamine Phalloidin in blocking solution. Following counter-staining of nuclei with 1 μg/ml DAPI (4′,6-diamidino-2-phenylindole), cells were mounted with fluorescence mounting medium (DAKO, Glostrup, Denmark). For each treatment option and sample, 500 cells were counted and the amount of mitosis and micronuclei was quantified using a Nikon Eclipse 400 microscope (Nikon, Tokyo, Japan).

HDAC1 [2] = target: T2, HDAC1 (Homo sapiens, UniProt Q13547); design: purchased Reaction Biology Corp. (Malvern, PA); details: previously reported; given for HDAC1/2 together; cited from earlier work
HDAC3 = HDAC3 (Homo sapiens, UniProt O15379); experiment: In vitro fluorescence-based HDAC inhibition assay (Reaction Biology); details: read-out: IC50 HDAC3; experiment performed once
HDAC1 [3] = target: T2, HDAC1; experiment: as above; details: read-out: IC50 HDAC1; experiment performed once
[4] = test system: three UCCs (VM-CUB1, UM-UC-3, 639-V); experiment: qRT-PCR of TS and p21CIP1 mRNA; type: cell-based, human; details: 19i 2 μM, 24 or 48 h, all three UCCs
Description: Total cell RNA was isolated by the Qiagen RNeasy Mini Kit (Qiagen, Hilden, Germany) according to the manufacturer’s protocol, and cDNA was synthesized using QuantiTect Reverse Transcription Kit (Qiagen, Hilden, Germany) with an extended incubation time of 30 min at 42 °C as previously described. Target mRNA expression was measured by qRT-PCR with QuantiTect SYBR Green RT-PCR Kit (Qiagen, Hilden, Germany) on the LightCycler® 96 Real-Time PCR system with software version 1.1 (Roche Diagnostics, Rotkreuz, Switzerland). All used primers, comprising QuantiTect Primer assays (Qiagen, Hilden, Germany), self-designed target primers, and primers for the reference housekeeping gene TBP (TATA-box binding protein), are listed in Additional file 2: Table S1.

HDAC4 = target: T3, HDAC4 (Homo sapiens, UniProt P56524); details: older assays, given for HDAC4/5 together; cited from earlier work
T3 construct: purchased Reaction Biology Corp. (Malvern, PA)

[5] = test system: UC cell lines (VM-CUB1, UM-UC-3, 639-V); experiment: MTT viability assay, UC cell lines taken together; type: cell-based, human; details: across VM-CUB1, UM-UC-3, 639-V; MTT, 72 h
Description: Further experiments were performed in VM-CUB1 and UM-UC-3 cells overexpressing HDAC4 (see below). Standard UCCs were obtained from the DSMZ (Braunschweig, Germany) and Dr. H.B. Grossmann HB (Houston, USA). For comparison, we investigated the spontaneously immortalized normal human bladder cell line HBLAK (provided by CELLnTEC, Bern, Switzerland) and the immortalized human embryonic kidney cell line HEK-293 (provided by Dr. V. Kolb-Bachofen, Duesseldorf, Germany). Cells were cultured and treated in DMEM GlutaMAX-I (Gibco, Darmstadt, Germany; UCCs and HEK-293) supplemented with 10% fetal calf serum (Biochrom, Berlin, Germany), except for HBLAK cultured in CnT-Prime Epithelial Culture Medium (CELLnTEC, Bern, Switzerland; HBLAK), at 37 °C and 5% CO2. […]
For the determination of cellular mean cytotoxic concentration (CC50), UCCs, non-malignant control cells, and HDAC4-overexpressing clones were seeded in a 96-well format and treated once with a range of defined concentrations of the HDAC inhibitors. After 72 h, viability was quantified by NAD(P)H-dependent 3-(4,5-dimethylthiazol-2-yl)-2,5-diphenyltetrazolium bromide dye reduction assay (MTT, Sigma Aldrich, St. Louis, MO). […] For time-dependent proliferation experiments, viability of untreated or inhibitor-treated cells was measured after 24, 48, and 72 h.

HDAC9 = HDAC9 (Homo sapiens, UniProt Q9UKV0); experiment: In vitro fluorescence-based HDAC inhibition assay (Reaction Biology); details: read-out: IC50 HDAC9; experiment performed once
639-V = experiment: MTT viability assay (CC50); type: cell-based, human; details: 72 h of incubation
Description: (§1) Further experiments were performed in VM-CUB1 and UM-UC-3 cells overexpressing HDAC4 (see below). Standard UCCs were obtained from the DSMZ (Braunschweig, Germany) and Dr. H.B. Grossmann HB (Houston, USA). For comparison, we investigated the spontaneously immortalized normal human bladder cell line HBLAK (provided by CELLnTEC, Bern, Switzerland) and the immortalized human embryonic kidney cell line HEK-293 (provided by Dr. V. Kolb-Bachofen, Duesseldorf, Germany). Cells were cultured and treated in DMEM GlutaMAX-I (Gibco, Darmstadt, Germany; UCCs and HEK-293) supplemented with 10% fetal calf serum (Biochrom, Berlin, Germany), except for HBLAK cultured in CnT-Prime Epithelial Culture Medium (CELLnTEC, Bern, Switzerland; HBLAK), at 37 °C and 5% CO2. STR (short tandem repeat) profiling via DNA fingerprint analysis was performed for all cell lines. Primary cultures of normal urothelial cells (UP) were established from healthy ureters removed during tumor nephrectomy and cultured as described. These cultures were used with informed consent of the patients and approval by the Ethics Committee of the Medical Faculty of the Heinrich-Heine-University, study number 1788. All inhibitors were dissolved in DMSO and stored as 10 mM stocks. […] The pan-HDACi inhibitor SAHA previously studied in detail was used for comparison. Solvent control cells were treated with equal amounts of DMSO.
(§2) For the determination of cellular mean cytotoxic concentration (CC50), UCCs, non-malignant control cells, and HDAC4-overexpressing clones were seeded in a 96-well format and treated once with a range of defined concentrations of the HDAC inhibitors. After 72 h, viability was quantified by NAD(P)H-dependent 3-(4,5-dimethylthiazol-2-yl)-2,5-diphenyltetrazolium bromide dye reduction assay (MTT, Sigma Aldrich, St. Louis, MO). CC50 values were estimated from three independent experiments by non-linear regression analysis (four-parameter logistic equation) using Prism 4.0 (Graph Pad) or Origin 8.0 (Origin Lab, Northhampton, GB). For time-dependent proliferation experiments, viability of untreated or inhibitor-treated cells was measured after 24, 48, and 72 h.

UM-UC-3 = experiment: MTT viability assay (CC50); type: cell-based, human; details: UM-UC-3, MTT, 72 h of incubation
Description: as §1, §2

VM-CUB1 = experiment: MTT viability assay (CC50); type: cell-based, human; details: VM-CUB1, MTT, 72 h of incubation
Description: as §1, §2

HBLAK = experiment: MTT viability assay (CC50); type: cell-based, human; details: 72 h of incubation
Description: as §1, §2

HEK-293 = experiment: MTT viability assay (CC50); type: cell-based, human; details: HEK-293, MTT, 72 h of incubation
Description: as §1, §2

T2 sequence (Q13547 whole entry): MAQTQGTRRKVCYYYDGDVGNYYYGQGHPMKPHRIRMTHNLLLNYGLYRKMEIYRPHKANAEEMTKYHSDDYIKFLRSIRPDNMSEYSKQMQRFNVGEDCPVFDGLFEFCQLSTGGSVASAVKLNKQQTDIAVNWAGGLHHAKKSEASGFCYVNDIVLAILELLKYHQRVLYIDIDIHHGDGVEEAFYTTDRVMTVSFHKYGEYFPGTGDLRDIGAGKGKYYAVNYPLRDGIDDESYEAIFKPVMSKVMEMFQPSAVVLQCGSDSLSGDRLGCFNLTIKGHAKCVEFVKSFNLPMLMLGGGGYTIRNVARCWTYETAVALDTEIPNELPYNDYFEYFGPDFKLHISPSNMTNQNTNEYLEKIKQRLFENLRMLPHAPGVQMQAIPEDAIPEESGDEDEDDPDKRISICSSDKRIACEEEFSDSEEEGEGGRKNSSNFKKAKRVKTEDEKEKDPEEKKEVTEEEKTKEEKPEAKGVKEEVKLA
HDAC3, sequence (O15379 whole entry): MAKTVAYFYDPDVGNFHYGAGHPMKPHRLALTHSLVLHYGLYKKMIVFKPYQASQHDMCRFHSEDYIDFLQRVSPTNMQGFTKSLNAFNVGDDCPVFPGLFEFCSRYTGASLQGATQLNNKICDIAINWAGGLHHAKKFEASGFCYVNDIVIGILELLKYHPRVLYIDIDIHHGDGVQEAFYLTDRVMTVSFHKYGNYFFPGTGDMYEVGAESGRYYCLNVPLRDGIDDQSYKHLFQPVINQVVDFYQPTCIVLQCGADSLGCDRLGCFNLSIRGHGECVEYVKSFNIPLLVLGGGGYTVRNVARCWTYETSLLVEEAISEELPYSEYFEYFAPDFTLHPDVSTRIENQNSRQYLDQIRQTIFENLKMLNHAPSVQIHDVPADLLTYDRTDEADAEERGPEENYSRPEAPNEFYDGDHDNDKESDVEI
HDAC3, sequence (Q9Y618 395-489 partner limits assumed): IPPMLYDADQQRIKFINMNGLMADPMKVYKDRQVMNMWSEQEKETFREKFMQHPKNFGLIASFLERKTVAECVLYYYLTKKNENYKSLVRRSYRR
T3 sequence (P56524 whole entry): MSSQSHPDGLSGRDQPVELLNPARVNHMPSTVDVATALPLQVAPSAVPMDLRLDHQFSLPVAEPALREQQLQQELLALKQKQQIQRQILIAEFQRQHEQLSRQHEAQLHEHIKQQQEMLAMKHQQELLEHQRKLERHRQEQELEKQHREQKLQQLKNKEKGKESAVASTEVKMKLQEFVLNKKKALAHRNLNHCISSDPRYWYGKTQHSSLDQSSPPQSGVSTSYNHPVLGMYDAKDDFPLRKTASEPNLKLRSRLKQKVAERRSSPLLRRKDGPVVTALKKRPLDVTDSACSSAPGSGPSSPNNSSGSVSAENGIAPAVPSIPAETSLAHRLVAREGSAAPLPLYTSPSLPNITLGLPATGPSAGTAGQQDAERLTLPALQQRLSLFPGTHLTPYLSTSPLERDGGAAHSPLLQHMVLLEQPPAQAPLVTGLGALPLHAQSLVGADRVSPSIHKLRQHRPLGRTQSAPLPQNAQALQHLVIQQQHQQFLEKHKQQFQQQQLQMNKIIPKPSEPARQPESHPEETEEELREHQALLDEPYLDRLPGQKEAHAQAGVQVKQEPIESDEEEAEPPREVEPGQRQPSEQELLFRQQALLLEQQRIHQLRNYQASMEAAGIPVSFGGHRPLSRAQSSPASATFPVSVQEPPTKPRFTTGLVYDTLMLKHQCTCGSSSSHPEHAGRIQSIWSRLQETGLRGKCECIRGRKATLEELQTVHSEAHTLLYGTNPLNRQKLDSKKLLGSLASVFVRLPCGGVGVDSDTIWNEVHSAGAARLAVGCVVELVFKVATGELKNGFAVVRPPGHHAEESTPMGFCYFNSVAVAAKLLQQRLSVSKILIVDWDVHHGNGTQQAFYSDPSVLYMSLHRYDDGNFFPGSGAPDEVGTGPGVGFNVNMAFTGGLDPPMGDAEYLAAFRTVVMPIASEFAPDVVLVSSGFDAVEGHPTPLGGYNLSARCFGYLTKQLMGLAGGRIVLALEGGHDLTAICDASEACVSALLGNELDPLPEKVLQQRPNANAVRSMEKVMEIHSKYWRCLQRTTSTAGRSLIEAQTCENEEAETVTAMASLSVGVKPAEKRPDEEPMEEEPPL
HDAC9, sequence (Q9UKV0 whole entry): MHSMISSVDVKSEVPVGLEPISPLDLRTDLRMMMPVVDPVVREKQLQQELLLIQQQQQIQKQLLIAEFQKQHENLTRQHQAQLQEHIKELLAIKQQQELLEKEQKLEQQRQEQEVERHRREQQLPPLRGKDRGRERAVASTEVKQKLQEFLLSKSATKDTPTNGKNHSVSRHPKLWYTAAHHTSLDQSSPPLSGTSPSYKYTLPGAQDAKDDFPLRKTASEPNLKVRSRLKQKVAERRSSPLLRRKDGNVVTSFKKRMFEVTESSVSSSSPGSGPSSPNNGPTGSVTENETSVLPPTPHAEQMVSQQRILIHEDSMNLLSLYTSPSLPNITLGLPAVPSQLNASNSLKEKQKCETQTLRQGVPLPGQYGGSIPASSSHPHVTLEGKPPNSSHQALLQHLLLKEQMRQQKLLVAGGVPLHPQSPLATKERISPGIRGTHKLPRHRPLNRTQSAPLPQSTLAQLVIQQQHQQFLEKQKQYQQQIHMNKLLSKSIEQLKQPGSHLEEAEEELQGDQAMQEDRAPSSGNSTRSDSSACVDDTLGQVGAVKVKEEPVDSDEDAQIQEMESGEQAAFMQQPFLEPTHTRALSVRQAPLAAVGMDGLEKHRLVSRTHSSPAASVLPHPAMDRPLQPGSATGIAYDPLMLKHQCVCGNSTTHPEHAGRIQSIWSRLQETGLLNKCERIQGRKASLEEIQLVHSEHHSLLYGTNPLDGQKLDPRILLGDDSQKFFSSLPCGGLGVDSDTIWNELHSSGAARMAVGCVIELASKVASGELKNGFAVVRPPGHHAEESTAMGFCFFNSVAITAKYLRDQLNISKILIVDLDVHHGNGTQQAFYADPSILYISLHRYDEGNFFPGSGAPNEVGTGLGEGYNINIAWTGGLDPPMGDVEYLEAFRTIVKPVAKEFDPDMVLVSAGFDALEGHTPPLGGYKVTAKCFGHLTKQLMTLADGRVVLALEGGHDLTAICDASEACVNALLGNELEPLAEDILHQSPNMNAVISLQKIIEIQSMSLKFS
T1 sequence (Q9UQL6 whole entry): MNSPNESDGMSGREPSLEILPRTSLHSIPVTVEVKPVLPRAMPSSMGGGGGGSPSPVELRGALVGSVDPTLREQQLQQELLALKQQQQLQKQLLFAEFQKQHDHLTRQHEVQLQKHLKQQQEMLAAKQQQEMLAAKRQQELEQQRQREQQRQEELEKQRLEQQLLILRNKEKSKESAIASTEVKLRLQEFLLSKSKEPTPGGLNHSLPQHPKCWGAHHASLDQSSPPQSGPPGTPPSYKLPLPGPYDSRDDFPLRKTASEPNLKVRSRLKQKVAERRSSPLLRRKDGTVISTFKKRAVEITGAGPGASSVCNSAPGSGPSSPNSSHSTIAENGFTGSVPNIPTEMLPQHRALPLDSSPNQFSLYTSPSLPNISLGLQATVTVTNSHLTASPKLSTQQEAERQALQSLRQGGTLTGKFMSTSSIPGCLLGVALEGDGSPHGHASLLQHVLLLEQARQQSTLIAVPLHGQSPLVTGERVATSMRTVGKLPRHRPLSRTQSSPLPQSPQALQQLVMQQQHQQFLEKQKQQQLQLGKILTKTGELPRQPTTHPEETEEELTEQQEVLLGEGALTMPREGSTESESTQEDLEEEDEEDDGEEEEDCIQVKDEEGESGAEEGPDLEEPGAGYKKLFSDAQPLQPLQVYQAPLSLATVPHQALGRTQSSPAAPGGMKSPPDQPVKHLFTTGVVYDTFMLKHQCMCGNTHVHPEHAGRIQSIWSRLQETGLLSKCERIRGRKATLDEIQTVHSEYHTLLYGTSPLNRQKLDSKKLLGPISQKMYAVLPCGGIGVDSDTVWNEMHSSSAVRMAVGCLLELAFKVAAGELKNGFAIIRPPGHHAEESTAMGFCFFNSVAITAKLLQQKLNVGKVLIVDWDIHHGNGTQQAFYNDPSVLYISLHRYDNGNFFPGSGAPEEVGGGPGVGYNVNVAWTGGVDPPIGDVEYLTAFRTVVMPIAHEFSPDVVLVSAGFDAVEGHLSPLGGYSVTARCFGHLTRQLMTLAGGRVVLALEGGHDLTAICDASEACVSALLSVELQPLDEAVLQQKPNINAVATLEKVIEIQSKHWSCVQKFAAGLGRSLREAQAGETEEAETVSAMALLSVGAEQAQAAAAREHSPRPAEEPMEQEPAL

SMILES: Cc1cc(C)cc(C(=O)NOCCCCCC(=O)NO)c1 [19i]
- in vitro IC50 HDAC5 (HDAC5): nanomolar range
- number of mitoses [1]: decreased sharply
- percentage of cells with micronuclei [1]: increased
- in vitro IC50 HDAC1 (HDAC1 [2]): sub-micromolar
- IC50 (HDAC3): 236 nM
- IC50 (HDAC1 [3]): 315 nM
- p21CIP1 mRNA expression [4]: increased
- thymidylate synthase (TS) mRNA expression [4]: decreased
- in vitro IC50 HDAC4 (HDAC4): nanomolar range
- CC50 [5]: ~1000 nM
- IC50 (HDAC9): 198000 nM
- CC50 (639-V): 1030 nM
- CC50 (UM-UC-3): 820 nM
- CC50 (VM-CUB1): 970 nM
- CC50 (HBLAK): > 5000 nM
- CC50 (HEK-293): 610 nM
